Experimental data from patent publication US20040038888A1 (priority 2002, published 2004).

Key:
subventricular zone NSC = assay: PACAP/BrdU infusion, BrdU labelling of the lateral ventricle wall; assay type: in vivo, mouse; details: 600 nM pump concentration, 0.5 μl/hr into the lateral ventricle, 3.5 days, relative to vehicle
Description: (§1) 10 week old male mice (C57B1/2), maintained on a 12 hr light/dark cycle with food and water ad libidum, were infused in the right lateral ventricle with PACAP38 (Bachem), using a Alzet pump (1007D), for 3,5 days or 7 days at a daily dose of 31 ng/day (600 nM PACAP pump concentration infused at a rate of 0.5 μl/hr). Bromodeoxyuridine (BrdU) (50 mg/ml) was also included in the infusion vehicle (0.9% saline containing 1 mg/ml mouse serum albumin (Sigma)) to enable measurement of proliferation by quantitation of BrdU incorporation in the DNA. The group of infused with either PACAP/BrdU or vehicle/BrdU for 3,5 days and sacrificed at this time point. […]
(§2) Brains were cut into 14-μm coronal sections using a cryostat-microtome. […] After 1 hour of washing, the BrdU-antibody complex was detected using 0.05% diaminobenzidine with 0.01% H2O2, and counterstained with Hematoxylin. […]
(§3) For all BrdU labelling experiments, three to six sections per animal were analysed. […] The number of BrdU-labelled cells per area of dentate granule cell layer was counted manually. […] BrdU-positive cells were counted along 2×250 micrometer strips of the lateral ventricle wall (see FIG. 18). Area measurements of both the dentate granule cell layer and the “counted” region of the lateral ventricle wall (including the ependymal cell layer and subventricular zone) were made from each slide used for the cell counts. […]

[1] = tested on: differentiating neural stem cells; assay: Thymidine incorporation, differentiating adult mouse NSC, adherent culture; assay type: cell-based; details: adherent conditions, 3 days, relative to controls
Description: To determine thymidine incorporation into DNA, mouse neurospheres, cultured as described above, from passage 2, were seeded in DMEM/F12 supplemented with B27 and 1% Fetal Calf Serum into a 96-well plate coated with poly-D-lysine as single cells (30000 cells/well) and cultured over-night. The following day the medium was replaced with Neurosphere medium and PACAP added to the concentrations indicated for a further 3 days. 3H-thymidine, 10 uCi/ml, was present the last 24 hours. Cells were harvested on to a filter paper and radioactivity was measured. 3H-thymidine (6,7 Ci/mmol) was from PerkinElmer.

primary adult NSC = assay: Self renewal and multipotency assay; assay type: cell-based, mouse; details: PACAP 100 nM
Description: Anterior lateral wall of the lateral ventricle was dissociated as described in Example 2 (Method A), and the cells resuspended in Neurosphere medium without EGF. The cell suspension was divided into a 24-well plate in triplicate and PACAP added to a final concentration of 100 nM. After 7 days, the neurospheres were split into single cells, as described in Example 1 (Method A), but in the absence of EGF. The cells were replated as single cells, PACAP added to 100 nM and incubated a further 7 days. The cells were passaged one further time, and plated as single cells in Neurosphere medium supplemented with 1% Fetal Calf Serum (Gibco) and 100 nM PACAP (Bachem) onto poly-D-lysine plates. The cells were incubated over-night in which time they adhered to the poly-D-lysine plates and the medium was changed to Neurosphere medium supplemented with 100 nM PACAP38, but absent of Fetal Calf Serum. The cells were cultured for a further 3 days, after which they were washed twice in PBS (Gibco) and fixed for 15 min at room temperature with 4% Formaldehyde (Sigma) and permeabilised for 20 minutes at room temperature in 0,1% Triton X-100 (Sigma) in PBS. After fixation and permeabilisation the cells were labelled with mouse monoclonal anti β-III Tubulin (1:1000 Promega), rabbit anti GFAP (1:500 Sigma), and mouse anti CNPase (1:500 Sigma). Primary antibodies were visualized with anti mouse Texas-Red and anti rabbit FITC (1:500 Vector Laboratories). All antibodies were diluted in PBS with 0,1% Triton X-l00.

[2] = tested on: hippocampal NSC/neural progenitors cells; assay: PACAP/BrdU infusion, BrdU labelling of the dentate gyrus; assay type: in vivo, mouse; details: 600 nM pump concentration, 0.5 μl/hr into the lateral ventricle, 3.5 days, relative to vehicle
Description: as §1, §2, §3

Substance: pituitary adenylate cyclase-activating polypeptide [PACAP]
- proliferation in the subventricular zone of the lateral ventricle wall (BrdU-positive cells) (subventricular zone NSC): significant increase in proliferation
- incorporation of tritiated thymidine [1]: No significant difference
- multiply-passaged neurospheres compared to EGF-treated neurospheres (primary adult NSC): no relevant differences
- self-renewal (secondary and tertiary neurospheres) (primary adult NSC; absence of other mitogens): retained their ability to self-renew
- multipotentiality (β-III Tubulin, GFAP, CNPase immunoreactivity) (primary adult NSC; spontaneous differentiation on poly-D-lysine): retaining the potential of generating all the cells of the CNS
- proliferation in the ipsilateral dentate gyrus (BrdU positive cells/mm^2) [2]: significant increase in proliferation
